Where no end group is shown, it is not given here.
Experiments:
[1] = test system: neurons treated with fragment 25-35 of β-Amyloid peptide; experiment: survival of cerebral cortex neurons treated with fragment 25-35 of β-amyloid peptide; assay type: cell-based, rat; details: 25 µM fragment alone; 5 days
Experimental: β-amyloid peptide is known to be involved in Alzheimer's disease and is a toxic substance to neurons grown in culture (Pike et al., J. of Neurosci., 13(4), 1676-1687 (1993)). Neurons from rat cerebral cortex, prepared as described above were treated with 25 µM of β-amyloid peptide fragment comprising amino acids in positions 25 to 35 mentioned in the above publication. The β-amyloid peptide fragment was dissolved in water and preincubated at 37°C for 48 h in 10% CO2. St-Nle^17-VIP (10 µl/1 ml medium) was added to the culture plates at varying concentrations together with the β-amyloid peptide fragment. The St-Nle^17-VIP was initially dissolved in DMSO to give a concentration of 10^-3 M and all further dilutions were performed in saline. Cells were then incubated for 5 days, stained with antibodies against neuron specific enolase and living neurons were counted as described above.

[2] = test system: neurons treated with a VIP antagonist; experiment: survival of cerebral cortical neurons treated with a VIP antagonist
Experimental: (§1) • (a) Cerebral cortical cultures were prepared by a slight modification of the techniques described by Forsythe and Westbrook, (J. Physiol. Lond. 396:515 (1988)), in which cerebral cortex was used instead of hippocampus and newborn rats were utilized instead of E16 mice. […] Cerebral cortical cells were counted as above, however, only 40 fields per plate were counted comprising an area of 20 mm^2.
(§2) • (a) Cells were prepared as described in Example 5. […] One treatment was given at the beginning of a five day test period. Cell counts were performed on 100 fields, with a total area of 50 mm^2. Neurons were counted without knowledge of treatment.

untreated neurons = experiment: survival of untreated cerebral cortical neurons (protection from naturally occurring death); details: for concentrations able to protect cells from naturally occurring death: cerebral cortical cultures of newborn rats, number of cells at 10^-12 M serves as control, Figs. 2-4
Experimental: as §1, §2

## GSNKGAIIGLM [fragment 25-35 of β-amyloid peptide]
[1]
  number of living neurons: 42 per 20 mm^2

## St-A-V-T-T-D-N-Y-T (stearyl-AVTTDNYT) [peptide 5]
[2]; in the presence (Fig. 5A) and in the absence (Fig. 5B) of the VIP antagonist
  effect on neuronal survival: VIP agonist, stimulating neuronal survival
[2]; in the presence of 10^-8 M VIP antagonist, five day test period, Fig. 5A
  concentration of maximal activity (neuronal survival): 10^-10 M
Untreated neurons; in absence of the VIP antagonist, five day test period, Fig. 5B
  concentration of maximal activity (neuronal survival): 10^-8 M

## St-H-S-D-G-I-F-T-D-S-Y-S-R-Y-R (stearyl-HSDGIFTDSYSRYR) [peptide 1]
Untreated neurons
  concentrations able to protect cells from naturally occurring death: above 10^-8 M

## St-K-Q-M-A-V-K-K-Y-L-A-A-V-L (stearyl-KQMAVKKYLAAVL) [peptide 2]
Untreated neurons
  concentrations able to protect cells from naturally occurring death: above 10^-9 M

Reference: patent publication EP0620008B1, “Use of vip, analogues and fragments thereof for the treatment of neurodegenerative diseases” (YEDA RESEARCH AND DEVELOPMENT COMPANY, LTD., priority 1993, dated 1999)
